{"source": "patent US20250249007A1", "about": "“PHARMACEUTICAL COMPOSITIONS OF ENSIFENTRINE FOR CHRONIC OBSTRUCTIVE PULMONARY DISEASE” (Verona Pharma PLC, priority 2024, published 2025)", "key": {"[1]": {"assay": "Dose normalized steady-state AUCtau in non-COPD subjects with and without hepatic impairment", "assay_type": "in vivo, human", "details": "for AUC: human, plasma, inhaled, 3 mg, dose normalized to 3 mg, FIG. 3", "protocol": "The dose normalized steady-state AUCtau for a 3 mg dose in non-COPD subjects with and without hepatic impairment is shown in FIG. 3. As described in FIG. 3 the AUCtau,ss of healthy subjects was from about 5000 pg/mL*h to about 9000 pg/mL*h. The AUCtau,ss of subjects with moderate hepatic impairment was about 4000 pg/mL*h to about 11000 pg/mL*h. The AUCtau,ss of subjects with severe hepatic impairment was about 5500 pg/mL*h to about 6500 pg/mL*h. […] The highest dose normalized AUCtau,ss observed in this subset was for a subject with moderate hepatic impairment, but this was not the highest exposure in the overall dataset as it was exceeded by two other subjects with COPD."}, "[2]": {"tested_on": "patients with moderate to severe COPD", "assay": "Clinical study of nebulized ensifentrine versus placebo in COPD: average FEV1 AUC0-12h at week 12", "assay_type": "in vivo, human", "protocol": "A clinical study was conducted to determine the efficacy of ensifentrine in treating COPD compared with placebo. Ensifentrine was administered by nebulizer at a dose of 3 mg twice daily (BID) for 24 weeks. The study was a multicenter, randomized, double-blind, parallel group, placebo-controlled trial with around 800 patients and 5:3 randomization.\nThe study population included patients aged 40-80 years with moderate to severe COPD (FEV1 30%-70% p.n., FEV1/forced vital capacity (FVC) ratio<0.7, with mMRC≥2). The randomization stratified (a) the use of stable background maintenance LAMA or LABA therapy use (approx. 50% yes or no) and (b) cigarette smoking (current or former). Inhaled corticosteroid (ICS) maintenance therapy was permitted in up to 20% of patients under certain provisions.\nThe primary endpoint of the study was change from baseline in average FEV1 area under the curve (AUC0-12h) […] at week 12; morning trough FEV1 at week 12; and other endpoints including moderate/severe COPD exacerbations frequency over 24 weeks.\nBaseline FEV1 is the mean of the two measurements taken before study medication on the day of first dosing, i.e., ≤40 minutes and just prior to dosing, both pre-dose on day 1. Average FEV1 AUC0-12h is defined as area under the curve over 12 h of the FEV1, divided by 12 h.\nThe investigational product and placebo were provided in 2.5 mL unit dose format in an ampule and administered via a nebulizer. The formulation of the investigational product (ensifentrine suspension formulation comprising crystalline polymorph Form I of ensifentrine) and placebo are shown in Table 2."}, "[3]": {"assay": "popPK model simulation of ensifentrine PK by renal function (virtual population of COPD subjects)", "parameters": "species or system human", "details": "nebulization of 3 mg, simulated", "protocol": "Plasma concentrations of ensifentrine for the assessment of pharmacokinetic (PK) parameters were measured using validated bioanalytical methods for ensifentrine in human plasma with LLOQ of 5 pg/mL. Samples were taken on the following schedule: • Week 6: 1.0 h (±0.5 h) and 2.5 h (±0.5 h) (even sites) or 1.5 h and 4 h (±1 h) (odd sites); • Week 12: pre-dose (−0.5 h), 4 to 6 h, and 8 to 12 h (even sites) or 0.5 h (±0.25 h), 3 h (±0.5 h), and 6 to 8 h (odd sites); • Week 24: pre-dose (−0.5 h) and 1.5 h (even sites) or pre-dose (−0.5 h) and 1 h (±0.5 h) (odd sites)\nBased on the samples taken during the trial, PK data was modelled for COPD patients with varying levels of renal function:\nA two-compartment model with first-order input and first-order elimination from the central compartment was fit to the plasma concentration-time data of ensifentrine using NONMEM® version 7.4.4. Different absorption functions and compartmental structures were explored. […]\nThe final model was evaluated using goodness of fit plots, bootstrap analysis, and visual predictive checks (VPCs). […]\nSubjects with normal renal function to mild renal impairment are defined as those individuals with an absolute estimated glomerular filtration rate (aEGFR) of greater than or equal to 60 mL/min. […] Individual subject concentrations were simulated using NONMEM version 7.4.3, and PK parameters were calculated using R version 3.4.0. […]"}}}
{"smiles": "COc1cc2c(cc1OC)-c1c/c(=N\\c3c(C)cc(C)cc3C)n(CCNC(N)=O)c(=O)n1CC2", "note": "[Ensifentrine, N-(2-{(2E)-9,10-dimethoxy-4-oxo-2-[(2,4,6-trimethylphenyl)imino]-6,7-dihydro-2H-pyrimido[6,1-a]isoquinolin-3(4H)-yl}ethyl)urea]", "values": [{"measurement": "AUC", "setting": "[1]; healthy subjects", "result": "5 to 9", "unit": "ng·h/mL"}, {"measurement": "AUC", "setting": "[1]; subjects with moderate hepatic impairment (n=10)", "result": "4 to 11", "unit": "ng·h/mL"}, {"measurement": "AUC", "setting": "[1]; subjects with severe hepatic impairment (n=2)", "result": "5.5 to 6.5", "unit": "ng·h/mL"}, {"measurement": "Exposure (AUC) in hepatic impairment versus healthy subjects", "setting": "[1]; moderate (n=10) or severe (n=2) hepatic impairment", "result": "comparable to healthy subjects"}, {"measurement": "Average FEV1 (AUC)0-12 h post-dose at Week 12: Change from Baseline, CFB Least Squares Mean (95% CI)", "setting": "[2]; 3 mg BID by nebulizer, week 12, n = 498", "result": "48.2 (30.0, 66.5) mL"}, {"measurement": "Average FEV1 (AUC)0-12 h post-dose at Week 12: Placebo-corrected CFB LS Mean Diff. (95% CI)", "setting": "[2]; 3 mg BID by nebulizer, week 12, versus placebo", "result": "93.9 (64.5, 123.3) mL"}, {"measurement": "Improvement in lung function", "setting": "[2]; individuals with normal renal function to mild renal impairment and subjects with moderate renal impairment", "result": "statistically significant improvement in lung function"}, {"measurement": "AUC ratio aEGFR < 60 mL/min: ≥60 mL/min", "setting": "[3]", "result": 1.30}, {"measurement": "Cmax ratio aEGFR < 60 mL/min: ≥60 mL/min", "setting": "[3]", "result": 1.16}]}
